This passage reports IC50 results from paper PMC2861162, “Purified TPC Isoforms Form NAADP Receptors with Distinct Roles for Ca^2+ Signaling and Endolysosomal Trafficking” (Current Biology, 2010).

SMILES strings stand for the structures.

One test concerns the target T1, SpTPC3 (Strongylocentrotus purpuratus, UniProt B8PXK0).
T1 construct: endogenous full-length protein immunoprecipitated with anti-SpTPC3 serum from solubilized egg membranes (S10P100 fraction); possibly homodimer; may carry associated proteins
T1 sequence (B8PXK0 1-840): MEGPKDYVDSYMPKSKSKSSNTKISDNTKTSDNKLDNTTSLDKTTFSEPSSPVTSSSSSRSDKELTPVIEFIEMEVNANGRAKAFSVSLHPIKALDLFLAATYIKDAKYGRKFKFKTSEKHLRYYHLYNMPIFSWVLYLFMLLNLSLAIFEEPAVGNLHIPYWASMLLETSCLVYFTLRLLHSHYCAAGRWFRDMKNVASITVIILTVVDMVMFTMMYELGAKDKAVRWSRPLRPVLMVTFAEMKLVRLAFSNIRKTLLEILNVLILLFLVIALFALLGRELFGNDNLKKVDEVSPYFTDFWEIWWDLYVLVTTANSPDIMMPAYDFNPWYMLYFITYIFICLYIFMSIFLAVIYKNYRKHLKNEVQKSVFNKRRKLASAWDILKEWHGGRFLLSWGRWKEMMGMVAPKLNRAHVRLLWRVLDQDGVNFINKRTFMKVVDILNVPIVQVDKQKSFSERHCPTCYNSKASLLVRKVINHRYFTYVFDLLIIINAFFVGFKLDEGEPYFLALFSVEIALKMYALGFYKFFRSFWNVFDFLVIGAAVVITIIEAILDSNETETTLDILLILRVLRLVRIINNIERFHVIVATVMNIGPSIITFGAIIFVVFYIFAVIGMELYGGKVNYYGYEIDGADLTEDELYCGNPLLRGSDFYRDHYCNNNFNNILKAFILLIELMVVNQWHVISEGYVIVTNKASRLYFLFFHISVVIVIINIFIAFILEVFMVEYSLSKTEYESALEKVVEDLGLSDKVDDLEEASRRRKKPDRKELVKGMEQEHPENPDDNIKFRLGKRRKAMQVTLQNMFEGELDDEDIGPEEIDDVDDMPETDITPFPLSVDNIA
As to the kind of experiment: […]NAADP competition binding on immunoprecipitate. The conditions noted are these: competitor against [32P]NAADP; immunopurified native complex; K+-dependent irreversible binding.

A further test concerns the target T2, SpTPC1 (Strongylocentrotus purpuratus, UniProt B8PXJ8).
T2 construct: endogenous full-length protein immunoprecipitated with anti-SpTPC1 serum from solubilized egg membranes (S10P100 fraction); native complex, may carry associated proteins
T2 sequence (B8PXJ8 1-882): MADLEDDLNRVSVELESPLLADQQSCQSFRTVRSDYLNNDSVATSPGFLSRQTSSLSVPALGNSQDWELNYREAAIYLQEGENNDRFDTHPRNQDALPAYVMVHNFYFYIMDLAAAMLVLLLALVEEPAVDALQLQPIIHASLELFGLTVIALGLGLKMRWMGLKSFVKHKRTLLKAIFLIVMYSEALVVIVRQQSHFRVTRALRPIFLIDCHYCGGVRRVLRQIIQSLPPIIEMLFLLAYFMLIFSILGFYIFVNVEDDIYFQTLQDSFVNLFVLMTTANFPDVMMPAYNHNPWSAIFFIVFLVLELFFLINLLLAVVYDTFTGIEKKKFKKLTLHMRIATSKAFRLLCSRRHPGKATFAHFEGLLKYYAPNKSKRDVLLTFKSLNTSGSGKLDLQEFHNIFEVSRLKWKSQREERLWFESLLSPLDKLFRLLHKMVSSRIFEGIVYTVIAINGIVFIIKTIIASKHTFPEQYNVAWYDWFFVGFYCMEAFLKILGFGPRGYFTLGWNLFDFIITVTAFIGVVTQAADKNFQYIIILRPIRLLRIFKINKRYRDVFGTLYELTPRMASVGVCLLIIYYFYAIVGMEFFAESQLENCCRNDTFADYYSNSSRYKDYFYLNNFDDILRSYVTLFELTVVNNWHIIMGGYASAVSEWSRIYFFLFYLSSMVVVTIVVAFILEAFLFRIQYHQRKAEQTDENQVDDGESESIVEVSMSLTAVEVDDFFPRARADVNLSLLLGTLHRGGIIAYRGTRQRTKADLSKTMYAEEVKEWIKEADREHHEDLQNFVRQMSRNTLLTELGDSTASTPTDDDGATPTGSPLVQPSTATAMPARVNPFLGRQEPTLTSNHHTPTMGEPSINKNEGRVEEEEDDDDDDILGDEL
The test is described as above. Conditions: competitor against [32P]NAADP; immunopurified native complex; K+-dependent irreversible binding.

Usually IC50 stands for the concentration that gives 50% inhibition. High values mean a need for much substance, low ones inhibition by little substance.

Consider `Nc1ncnc2c1ncn2[C@@H]1O[C@H](COP(=O)(O)OP(=O)(O)OC[C@H]2O[C@@H]([n+]3cccc(C(=O)O)c3)[C@H](O)[C@@H]2O)[C@@H](O)[C@H]1OP(=O)(O)O` [NAADP], for which the IC50 on SpTPC3 was determined as 0.9 nM; at SpTPC1, 1.4 nM.
